How the values were obtained:
[1] = test system: MDR cell lines (MES-SA/DX5, HL-60/TX1000); assay: in vitro activity over the two MDR cell lines; assay type: cell-based, human; conditions: MES-SA/DX5, HL-60/TX1000; in words
Description: (§1) The cell lines were maintained in RPMI1640 (GIBCO) supplemented with 10% FCS, 100 units/ml penicillin, 100 ug/ml streptomycin, and 2 mM L-glutamine. The cells were split every third day and diluted to a concentration of 2×10^5 cells/ml one day before experiment. All experiments were performed on exponentially growing cell culture. Cell densities were 2.5×10^4 cells/ml in all experiment.
(§2) A stock solution of Compound (1) and a stock solution of Taxol (positive control) were prepared by dissolving the compound at a concentration of 1 mM in 100% DMSO. Final concentrations were obtained by diluting the stock solution directly into the tissue culture medium. Cells were incubated with varying concentrations of the compounds for 72 hours and the IC50 was determined by MTS (i.e. 3-(4,5,-dimethylthiazol-2-yl)-2,5-diphenyl tetrazolium bromide) assay. IC50 stands for the concentration of compound required to inhibit 50% tumor cell growth.
In vitro activity was determined in two MDR (Multi Drug Resistant) human cancer cell lines. HL-60/TX1000 was isolated in vitro by subculturing HL-60 in progressively higher concentration of Taxol. HL-60/TX1000 cells over-express mdr-1 mRNA and p-glycoprotein, as determined by western blot and immunofluorescence labeling with antiPGP antibodies. The cell is cross-resistant to Taxol, Vincristine, Adriamycin, Etoposide and Doxorubicin. MES-SA/Dx5 was established in the presence of increasing concentrations of Doxorubicin. […] MES-SA/Dx5 was purchased from ATCC.
The procedure for culturing the cells and assaying cancer cell growth inhibition were as described in Example 3.

[2] = test system: MES-SA (human uterine sarcoma); assay: In vitro anti-cancer activity, MTS growth inhibition assay, MES-SA; assay type: cell-based; conditions: MES-SA cells, 72 hours, MTS assay (Table 1), read-out: IC50
Description: (§3) The in vitro activity of the compounds was determined in the following seven human cancer cell lines. MDA435 (human breast cancer), MIP101 (human colon cancer), HL-60 (human myeloid leukemia), U937 (human leukemia), p388 (murine leukemia), DU-145 (human prostate cancer), MES-SA (human uterine sarcoma) were obtained from ATCC (American Type of Culture Collection).
as §1, §2
The protocol described in Examples 9-10 was used to assay inhibition by Compounds (20) (21) (24) and (28) on the growth of cancer cell lines MES-SA (human uterine sarcoma cell line) and DU-145 (human prostate cancer).

[3] = test system: human breast MDA435 tumors; assay: Tumor growth inhibition assay, human breast tumor (MDA435) xenograft in nude mice; assay type: in vivo, nude mice (CD-1 nu/nu)
Description: The in vivo anti-cancer efficacy of Compound (1) was assessed in tumor bearing mice using a tumor growth inhibition assay. Human breast tumor (MDA-435) cells were implanted by injection of a tumor cell suspension subcutaneously in the flank of a nude mouse. Treatment of the tumor with an experimental compound began after the tumor had been established (volume was approximately 100 mm^3). The animal then began a multiple injection schedule where the compound was administered orally. Tumors were measured two times a week. During the course of this assay, animals were monitored daily for signs of toxicity including body weight loss.
A supplemented media was prepared from 50% DMEM/Dulbecco Modified Eagle Medium (High Glucose), 50% RPMI 1640, 10% FBS/Fetal Bovine Serum (Hybridoma Tested; Sterile Filtered), 1% L-Glutamine, 1% Penicillin-Streptomycin, 1% MEM Sodium Pyruvate, 1% MEM Non-Essential Amino Acids. […]
The flask was washed with 10 ml of sterile room temperature phosphate buffered saline (PBS). […] The supernatant was aspirated and the cell pellet was resuspended in 10 ml of supplemented media and the cells were counted. […]
The above procedure for trypsinizing and centrifuging the cells were followed. The supernatant was aspirated and the cell pellet was resuspended in 10 ml of sterile PBS and the cells were counted. […]

[4] = test system: MIP101 (human colon cancer); assay: In vitro anti-cancer activity, MTS growth inhibition assay, MIP-101; assay type: cell-based; conditions: MIP-101 cells, 72 hours
Description: as §3, §1, §2

IC50 [2]: 0.01 µM
IC50 [4]: 0.02 µM
Structure (SMILES): Cc1cc(NC(=O)C(=O)c2cc(Cc3ccc(C#N)cc3)n3ccccc23)sn1 [Compound (1), 2-(3-(4-cyanobenzyl)-indolizin-1-yl)-N-(3-methyl-isothiazol-5-yl)-2-oxo-acetamide]
anti-cancer activity against MDR cancer cell lines [1]: high anti-cancer activity
tumor growth inhibition ([3]; MDA435 in nude mice, 25 mg/kg and 50 mg/kg orally, 3 times a week for 3 weeks, FIG. 1): significantly inhibits tumor growth
reduction of the volume of tumors ([3]; MDA435 tumors in nude mice, administered orally): greater than 50%

Reference: patent publication US20040214850A1, “1-glyoxylamide indolizines for treating cancer” (Synta Pharmaceuticals Corp., priority 2001, published 2004)
